Source: US20250361230A1, “LATS Inhibitors and Uses Thereof” (The USA, as Represented by the Secretary, Dept. of Heath …, priority 2022, published 2025)
Read-outs that look alike come from different tables or passages of the source.

Legend:
[1] = molecular target: T1, AKT Kinase-NanoLuc fusion in HEK-293 cells (Homo sapiens, UniProt P31749); test: NanoBRET target engagement assay in transfected HEK-293 cells, AKT; format: cell-based
T1 construct: host or cells: HEK-293
From the text: (§1) The NanoBRET™ assay measures kinase engagement in real time in the context of the intact cell. The assay uses a Kinase-NanoLuc® fusion vector expressing a kinase protein to which a luciferase tag has been added, a cell-permeant fluorescent NanoBRET™ tracer, a NanoLuc® substrate, and an extracellular NanoLuc® inhibitor. Upon expression of the luciferase-tagged kinase, cells will produce a strong BRET signal only in the presence of the NanoBRET™ tracer. The extracellular NanoLuc® inhibitor ensures that the BRET signal observed emanates only from live cells. Because the BRET signal has tight distance constraints, addition of the test compound will decrease the BRET signal if the compound competes with the NanoBRET™ tracer for binding to the kinase domain. Under the appropriate tracer conditions established by the manufacturer, quantitative intracellular affinity and relative potency can then be determined using Mass Action model equations.
(§2) HEK-293 cells were purchased from ATCC. FuGENEHD Transfection Reagent, Kinase-NanoLuc® fusion plasmids, Transfection Carrier DNA, NanoBRET™ Tracers and dilution buffer, NanoBRET™ Nano-Glo Substrate, Extracellular NanoLuc® Inhibitor were obtained from Promega.
(§3) Assays were conducted following Promega assay protocol with some modifications as described further below. HEK-293 Cells were transiently transfected with Kinase-NanoLuc® Fusion Vector DNA by FuGENE HD Transfection Reagent. Test compounds were delivered into 384 well assay plate by Echo 550 (Labcyte Inc, Sunnyvale, CA). Transfected cells were harvested and mixed with NanoBRET™ Tracer Reagent and dispensed into 384 well plates and incubated at 37° C. in 5% CO2 cell culture incubator for 1 hour. The NanoBRET™ Nano-Glo Substrate plus Extracellular NanoLuc® Inhibitor Solution were added into the wells of the assay plate and incubated for 2-3 minutes at room temperature. The donor emission wavelength (460 nm) and acceptor emission wavelength (600 nm) were measured in the EnVision plate reader. The BRET Ratios were calculated. BRET Ratio=[(Acceptor sample÷Donor sample)−(Acceptor no-tracer control÷Donor no-tracer control)]. The IC50 values of compounds were calculated with Prism GraphPad program.
(§4) • 1. Transient Transfection of HEK-293 Cells NanoLuc® Fusion Vector DNA • 1). Cultivate HEK-293 cells (70-80% confluence) appropriately prior to assay. Trypsinize and collect HEK-293 cells. • 2). Prepare lipid: DNA complexes as follows: • a. Prepare a […] solution of DNA in Opti-MEM™ without serum that consists of the following ratios of carrier DNA and DNA encoding NanoLuc® fusion. 9.0 µg/mL of Transfection Carrier DNA, […] of NanoLuc® fusion vector DNA and 1 mL of Opti-MEM™ without phenol red. Mix thoroughly. • b. Add 30 μl of FuGENE HD Transfection Reagent into each milliliter of DNA mixture to form lipid: DNA complex. • c. Mix by inversion 10 times. • d. Incubate at ambient temperature for 20 minutes to allow complexes to form. • 3). In a sterile, conical tube, mix 1 part of lipid: DNA complex with 20 parts of HEK-293 cells in suspension. Mix gently by inversion 5 times. • 4). Dispense cells+lipid: DNA complex into a sterile tissue culture dish and incubate for 22-24 hours. • 2. Addition of Test Compounds (dry plate shooting): Each test compound is delivered from the compound source plate to the wells of 384-well white NBS plate by Echo 550. • 3. Preparation of Cells with NanoBRET™ Tracer Reagent • 1). Remove medium from dish with transfected HEK-293 cells via aspiration, trypsinize and allow cells to dissociate from the dish. • 2). Neutralize trypsin using medium containing serum and centrifuge at 200× g for 5 minutes to pellet the cells. Adjust the cell density to 2×10^5 cells/mL in Opti-MEM™ without phenol red. • 3). Prepare Complete 20× NanoBRET™ Tracer Reagent with Tracer Dilution Buffer. • 4). Dispense one part of Complete 20× NanoBRET™ Tracer Reagent to 20 parts of cells in the tube. Mix gently by inversion 10 times. • 5). […]

[2] = molecular target: T2, LATS1 Kinase-NanoLuc fusion in HEK-293 cells (Homo sapiens, UniProt O95835); test: NanoBRET target engagement assay in transfected HEK-293 cells, LATS1; format: cell-based
T2 construct: host or cells: HEK-293
T2 sequence (O95835 1-1130): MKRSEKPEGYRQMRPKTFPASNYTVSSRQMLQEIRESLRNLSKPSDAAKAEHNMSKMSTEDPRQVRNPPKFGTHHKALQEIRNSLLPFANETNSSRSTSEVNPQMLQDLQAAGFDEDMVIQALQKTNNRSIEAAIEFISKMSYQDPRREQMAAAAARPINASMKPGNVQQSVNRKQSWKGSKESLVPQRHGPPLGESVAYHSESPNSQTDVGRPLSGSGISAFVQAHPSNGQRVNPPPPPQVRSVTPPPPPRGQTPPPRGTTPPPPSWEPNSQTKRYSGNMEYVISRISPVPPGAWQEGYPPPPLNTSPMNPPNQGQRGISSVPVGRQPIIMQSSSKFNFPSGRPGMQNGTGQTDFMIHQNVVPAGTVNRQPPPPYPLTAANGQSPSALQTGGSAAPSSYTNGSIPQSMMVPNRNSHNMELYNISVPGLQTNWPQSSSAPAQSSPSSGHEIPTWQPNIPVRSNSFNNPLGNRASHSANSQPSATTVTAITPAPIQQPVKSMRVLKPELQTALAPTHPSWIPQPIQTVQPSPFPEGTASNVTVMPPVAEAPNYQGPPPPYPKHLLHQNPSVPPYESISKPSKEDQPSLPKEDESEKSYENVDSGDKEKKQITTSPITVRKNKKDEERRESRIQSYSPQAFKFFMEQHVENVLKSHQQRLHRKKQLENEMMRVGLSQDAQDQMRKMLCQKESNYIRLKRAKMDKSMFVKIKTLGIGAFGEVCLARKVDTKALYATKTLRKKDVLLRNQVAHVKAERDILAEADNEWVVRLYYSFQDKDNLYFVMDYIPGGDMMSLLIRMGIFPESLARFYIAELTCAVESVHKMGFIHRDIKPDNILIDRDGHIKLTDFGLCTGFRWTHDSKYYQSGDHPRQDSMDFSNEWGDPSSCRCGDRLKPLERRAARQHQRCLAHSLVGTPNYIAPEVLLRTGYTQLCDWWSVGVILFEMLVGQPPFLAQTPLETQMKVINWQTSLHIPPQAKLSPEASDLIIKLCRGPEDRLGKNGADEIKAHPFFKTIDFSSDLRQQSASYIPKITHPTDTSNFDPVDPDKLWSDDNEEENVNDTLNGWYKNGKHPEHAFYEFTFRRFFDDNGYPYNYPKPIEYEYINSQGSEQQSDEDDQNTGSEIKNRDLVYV
From the text: as §1, §2, §3, §4

[3] = cellular, read-out: AKT (Cellular) IC50
[4] = Table 28, NanoBRET, HEK-293 cells, read-out: AKT1 (Cellular) IC50
[5] = Table 28, NanoBRET, HEK-293 cells, read-out: LATS1 (Cellular) IC50

T1 sequence (P31749 whole entry, the tested form may be a part): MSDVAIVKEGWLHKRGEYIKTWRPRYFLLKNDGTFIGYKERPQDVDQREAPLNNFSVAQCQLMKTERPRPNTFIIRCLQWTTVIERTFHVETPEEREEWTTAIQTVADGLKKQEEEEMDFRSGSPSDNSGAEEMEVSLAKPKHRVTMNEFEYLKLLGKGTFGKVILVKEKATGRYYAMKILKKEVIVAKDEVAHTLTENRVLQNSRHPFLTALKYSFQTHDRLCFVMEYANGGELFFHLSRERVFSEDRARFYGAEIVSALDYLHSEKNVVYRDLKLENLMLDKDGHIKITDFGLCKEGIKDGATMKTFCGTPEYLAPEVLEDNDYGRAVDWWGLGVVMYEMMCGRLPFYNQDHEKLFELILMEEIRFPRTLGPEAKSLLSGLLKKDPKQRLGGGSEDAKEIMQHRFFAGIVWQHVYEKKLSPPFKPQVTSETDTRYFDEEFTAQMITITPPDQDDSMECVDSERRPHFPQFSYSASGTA

Structure (SMILES) | IC50 [1, 3] [µM] | IC50 ([2]; cellular) [µM] | IC50 [1, 4] [µM] | IC50 [2, 5] [µM] | other results
CNCC(=O)N1C[C@@H](C)[C@](O)(c2c(C)cc(-c3ccnc4[nH]cc(C#N)c34)cc2F)[C@@H](C)C1 [Compound 2012, 4-(3-fluoro-4-((3S,4s,5R)-4-hydroxy-3,5-dimethyl-1-(methylglycyl)piperidin-4-yl)-5-methylphenyl)-1H-pyrrolo[2,3-b]pyridine-3-carbonitrile] | > 50 | < 0.0025 |  |  | 
Cc1cc(-c2ccnc3[nH]cc(C#N)c23)cc(F)c1[C@@]1(O)[C@H](C)CN(C(=O)[C@H](C)N)C[C@@H]1C [Compound 2011, 4-(4-((3S,4R,5R)-1-(L-alanyl)-4-hydroxy-3,5-dimethylpiperidin-4-yl)-3-fluoro-5-methylphenyl)-1H-pyrrolo[2,3-b]pyridine-3-carbonitrile] | > 50 | < 0.0025 |  |  | 
C[C@@H]1CN(Cc2ccccn2)C[C@H](C)[C@@]1(O)c1c(F)cc(-c2ccnc3[nH]cc(F)c23)cc1F [Compound 17, (3S,4s,5R)-4-(2,6-difluoro-4-(3-fluoro-1H-pyrrolo[2,3-b]pyridin-4-yl)phenyl)-3,5-dimethyl-1-(pyridin-2-ylmethyl)piperidin-4-ol] |  |  | 24.1 | 0.409 | 
OC1(c2ccc(-c3ccnc4[nH]cc(F)c34)cc2)CCNCC1 [Compound 110, 4-(4-(3-fluoro-1H-pyrrolo[2,3-b]pyridin-4-yl)phenyl)piperidin-4-ol] |  |  | 13.3 | 17.7 | 
Cc1cc(-c2ccnc3[nH]cc(F)c23)ccc1[C@@]1(O)[C@H](C)CN(C(C)C)C[C@@H]1C [Compound 29, (3S,4s, 5R)-4-(4-(3-fluoro-1H-pyrrolo[2,3-b]pyridin-4-yl)-2-methylphenyl)-1-isopropyl-3,5-dimethylpiperidin-4-ol] |  |  | 17 | 0.086 | 
COC(=O)c1c[nH]c2nccc(-c3ccc(C(O)(CN)c4ccc(Cl)cc4)cc3)c12 (centres unmarked) [Compound 1004, Methyl 4-(4-(2-amino-1-(4-chlorophenyl)-1-hydroxyethyl)phenyl)-1H-pyrrolo[2,3-b]pyridine-3-carboxylate] |  |  |  |  | IC50 ([1]; Table 32, NanoBRET, HEK-293 cells, read-out: AKT (Cellular) IC50): 0.548 µM; IC50 ([2]; Table 32, NanoBRET, HEK-293 cells, read-out: LATS1 (Cellular) IC50): 2 µM
c1cc(-c2ccc(C3CC4CCC(C3)N4)cc2)c2cc[nH]c2n1 (centres unmarked) [Compound 184, 4-(4-(8-azabicyclo[3.2.1]octan-3-yl)phenyl)-1H-pyrrolo[2,3-b]pyridine] |  |  | 27.4 | 57.4 | 

Now from value to compound, other results behind:

IC50 [1, 3] [µM] | IC50 ([2]; cellular) [µM] | IC50 [1, 4] [µM] | IC50 [2, 5] [µM] | Structure (SMILES) | other results
> 50 | < 0.0025 |  |  | Cc1cc(-c2ccnc3[nH]cc(C#N)c23)cc(F)c1[C@@]1(O)[C@H](C)CN(C(=O)[C@H](N)CO)C[C@@H]1C [Compound 2007, 4-(4-((3S,4S,5R)-1-(D-seryl)-4-hydroxy-3,5-dimethylpiperidin-4-yl)-3-fluoro-5-methylphenyl)-1H-pyrrolo[2,3-b]pyridine-3-carbonitrile] | 
56.8 | 0.0466 |  |  | Cc1cc(-c2ccnc3[nH]cc(C#N)c23)ccc1[C@@]1(O)[C@H](C)CN(C(=O)CN)C[C@@H]1C [Compound 2005, 4-(4-((3S,4s,5R)-1-glycyl-4-hydroxy-3,5-dimethylpiperidin-4-yl)-3-methylphenyl)-1H-pyrrolo[2,3-b]pyridine-3-carbonitrile] | 
 |  | > 30 | 0.0582 | Cc1cc(-c2ccnc3[nH]cc(F)c23)cc(F)c1C1(O)[C@H](C)CN(C2COC2)C[C@@H]1C (stereo partly drawn) [Compound 30, (3S,5R)-4-(2-fluoro-4-(3-fluoro-1H-pyrrolo[2,3-b]pyridin-4-yl)-6-methylphenyl)-3,5-dimethyl-1-(oxetan-3-yl)piperidin-4-ol] | 
 |  | 3.45 | 11.9 | NCc1ccc(-c2ccnc3[nH]cc(-c4cccnc4)c23)cc1 [Compound 245, (4-(3-(pyridin-3-yl)-1H-pyrrolo[2,3-b]pyridin-4-yl)phenyl) methanamine] | 
 |  | 0.752 | 5.47 | Cc1cccc(-c2c[nH]c3nccc(-c4ccc(CN)cc4)c23)c1 [Compound 230, (4-(3-(m-tolyl)-1H-pyrrolo[2,3-b]pyridin-4-yl)phenyl) methanamine] | 
 |  | 4.95 | 2.13 | C[C@@H]1CNC[C@H](C)[C@@]1(O)c1ccc(-c2ccnc3[nH]cc(F)c23)cc1OC(F)(F)F [Compound 14, (3S,4s,5R)-4-(4-(3-fluoro-1H-pyrrolo[2,3-b]pyridin-4-yl)-2-(trifluoromethoxy)phenyl)-3,5-dimethylpiperidin-4-ol] | 
 |  | > 50 | 22.8 | NCc1ccc(-c2ccnc3[nH]ccc23)cc1 [Compound 287, (4-(1H-pyrrolo[2,3-b]pyridin-4-yl)phenyl) methanamine] | 
> 50 | < 0.0025 |  |  | Cc1cc(-c2ccnc3[nH]cc(C#N)c23)cc(F)c1[C@@]1(O)[C@H](C)CN(C(=O)[C@@H](C)N)C[C@@H]1C [Compound 2015, 4-(4-((3S,4S,5R)-1-(D-alanyl)-4-hydroxy-3,5-dimethylpiperidin-4-yl)-3-fluoro-5-methylphenyl)-1H-pyrrolo[2,3-b]pyridine-3-carbonitrile] | 
 |  | 39.9 | 1.35 | COC(=O)c1c[nH]c2nccc(-c3cc(C)c([C@@]4(O)[C@H](C)CN(C5CCS(=O)(=O)CC5)C[C@@H]4C)c(F)c3)c12 [Compound 309, methyl 4-(4-((3S,4s,5R)-1-(1,1-dioxidotetrahydro-2H-thiopyran-4-yl)-4-hydroxy-3,5-dimethylpiperidin-4-yl)-3-fluoro-5-methylphenyl)-1H-pyrrolo[2,3-b]pyridine-3-carboxylate] | 
